Measured values reported in article PMC7259638, “Characterization of the intestinal absorption of morroniside from Cornus officinalis Sieb. et Zucc via a Caco-2 cell monolayer model” (PLoS ONE, 2020).

Legend:
[1] = set-up: method as in PMID 17596900, doi:10.1177/1934578X19856526; conditions: rats; oral vs intravenous; cited from earlier work
Caco-2 cell monolayers = test: Effects of influx/efflux transporter inhibitors and CO on morroniside transport in Caco-2 cell monolayers; format: in vitro ADME, human; conditions: for PappAB (mean): AP to BL; for PappBA (mean): BL to AP; for PappAB / PappBA: pH 7.4, 37 °C
Method: An initial stock solution of morroniside in methanol was prepared. The stock solution was then diluted with HBSS (pH = 7.4) and the final concentration of methanol in HBSS remained at 0.5%. […] Caco-2 cells were seeded at a density of 5 × 10^4 cells/cm^2 in a 12-well plate. The transepithelial electrical resistance (TEER) value was measured with a Millipore ERS voltameter (Burlington, MA, USA) in order to evaluate and determine monolayer integrity. The monolayers were ready for experiments 19 to 22 days after seeding.
During incubation, the culture medium was refreshed every other day. The culture medium was discarded, and 500 μL of HBSS was added to each well and incubated for 20 min at 37 °C. Afterward, each well was rinsed two times with HBSS at 37 °C. Three concentrations of morroniside (5, 25 and 100 μM) were added to either the apical (AP, 0.5 mL) or basolateral side (BL, 1.5 mL), wheras the receiving chamber contained the corresponding volume of blank HBSS medium (pH = 7.4). Incubation was performed at 37 °C for 180 min, with shaking at 50 rpm. To assess drug transport from the AP to BL side, after incubation for 5, 15, 30, 45, 60, 90, 120 or 180 min, 50 μL of the solution from the BL or AP side was collected, and replaced with an equal volume of HBSS. To study the effect of pH on morroniside (5, 25 and 100 μM) transport, the experiments were performed in HBSS, which was adjusted to pH 6.0 or pH 7.4 on the AP side depending on the experiment, and to pH 7.4 on the BL side at 37 °C.
Efflux and influx transporters were investigated for their effects on the transport flux of morroniside. Several ATP-binding cassette transporter inhibitors, including one p-glycoprotein (P-gp) inhibitor (100μM verapamil); one multidrug resistance- related protein (MRP) inhibitor (100 μM, MK571), one multidrug resistance- related protein 3 (MRP3, the main BL MRP) inhibitor ([…]) and one multidrug resistance- related protein 2 (MRP2, the main AP MRP) inhibitor (200μM indomethacin); and one breast cancer resistance protein (BCRP) inhibitor (25μM apigenin) were used to determine the transporters involved in the efflux transport of morroniside. The inhibition of the influx transport of morroniside transport across the Caco-2 cell monolayer was investigated by the addition of 50 μM sodium vanadate and cimetidine to evaluate the selectivity of Na/K-ATPase. The pH and temperature conditions of this assay were 7.4 and 37 °C, respectively.
UPLC-MS/MS data acquisition was performed using Analyst 1.5.2 and MultiQuant 2.1.1 software (Applied Biosystems). All data are shown as the mean ± standard deviation, n = 3. The data were analyzed using SPSS 20.0. In the Caco-2 cell model, the rate of transport was obtained from the amount transported versus the time curve using linear regression. The permeability coefficient of each compound was calculated using the following equation: Papp = (dQ/dt)/(A·C0).
where, dQ/dt is the rate of drug transport, C0 is the initial concentration of the compound in the donor chamber and A represents the surface area of the cell monolayer. The efflux ratio P was determined by calculating the ratio of Papp in the secretory (BA) direction divided by that in the absorptive (AB) direction, according to the following equation: P=PappBA/PappAB

Caco-2 cells = test: MTT cytotoxicity assay; format: cell-based, human; conditions: for Survival Rates (%, mean): Caco-2 cells, five replicates
Method: The conditions for Caco-2 cell culture have been described previously. Briefly, Caco-2 cells were cultured in a humidified atmosphere of 5% CO2 and 95% air at 37 °C. The culture medium (DMEM) was supplemented with 10% (v/v) fetal bovine serum, 1% nonessential amino acids, 1% penicillin, and streptomycin. The medium was changed every 2–3 days. When the cell monolayer reached 80–90% confluence, the cells were detached with a solution of trypsin (0.5 mg/mL) and EDTA (0.2 mg/mL) and reseeded at a density of 5×10^4 cells/cm^2.
For the cytotoxicity assay, the cells were incubated in 96-well plates for 24 h. Morroniside dissolved in methanol was diluted with DMEM to terminal concentrations that ranged from 0.1 μM to 200 μM, or CO at 0.63 mg/mL (containing 25 μM morroniside). A negative control group was obtained by the addition of DMEM with methanol at 0.5%(v/v). The cell culture medium treated group was treated only with DMEM. MTT solution was prepared to 1 mg/mL in phosphate-buffered saline and filtered through a 0.2 μm filter. Then, 20 μL of MTT was added into each well. Cells were incubated for 4 h at 37 °C with 5% CO2, 95% air and 100% humidity. After 4 h, the MTT solution was removed and replaced with 150 μL of DMSO. The plate was further incubated for 5 min at room temperature (20 °C), and the optical density of the wells was measured using a plate reader at a wavelength of 490 nm.

[2] = 25 μM morroniside, with verapamil 100 μM
[3] = after 0.63 mg/mL CO (containing 25 μM morroniside) was added
[4] = with 50 μM sodium vanadate (Na+/K+ pump)

For `COC(=O)C1=CO[C@@H](O[C@@H]2O[C@H](CO)[C@@H](O)[C@H](O)[C@H]2O)[C@@H]2[C@H](C)O[C@@H](O)C[C@H]12` [morroniside, Morroniside], the absolute oral bioavailability [1] is listed as 3.6–7.0%, the PappAB (mean) (Caco-2 cell monolayers; 25 μM morroniside, Control) is listed as 1.9 ×10⁻⁶ cm/s and the PappAB (mean) (Caco-2 cell monolayers; 25 μM morroniside, with apigenin 25 μM) is listed as 6.12 ×10⁻⁶ cm/s. It also gave a PappAB (mean) (Caco-2 cell monolayers; [2]) of 1.84 ×10⁻⁶ cm/s, a PappBA (mean) (Caco-2 cell monolayers; 25 μM morroniside, Control) of 3.06 ×10⁻⁶ cm/s and a PappBA (mean) (Caco-2 cell monolayers; 25 μM morroniside, with benzbromarone 50 μM) of 3.04 ×10⁻⁶ cm/s. The PappBA (mean) (Caco-2 cell monolayers; [2]) was 2.93 ×10⁻⁶ cm/s, the “change of PappAB vs control” value (Caco-2 cell monolayers; 25 μM morroniside, after addition of apigenin (25 μM), p < 0.05) was “increased significantly” and the “decrease in the efflux ratio” value (Caco-2 cell monolayers; 25 μM morroniside, after addition of apigenin (25 μM), vs control) was 72.05%. The “PappAB (mean)” value (Caco-2 cell monolayers; morroniside given as CO 0.63 mg/mL (containing 25 μM morroniside), in 1e-6 cm/s) was 4.284, the PappBA (mean) (Caco-2 cell monolayers; morroniside given as CO 0.63 mg/mL (containing 25 μM morroniside)) was 2.11 ×10⁻⁶ cm/s and the PappAB (Caco-2 cell monolayers; Control (no inhibitor), influx transporter experiment) was 1.90±0.5 ×10^-6cm/s. The “change of PappAB vs control” value (Caco-2 cell monolayers; [3]) was “increased significantly”, the “change of PappBA vs control” value (Caco-2 cell monolayers; [3]) was “not significantly different” and the “change of PappAB vs control” value (Caco-2 cell monolayers; after MK 571 was added) was “increased”. For the same compound, the “change of PappBA vs control” value (Caco-2 cell monolayers; after MK 571 was added) was “no effect”, the “change of AP to BL flux (PappAB) vs control” value (Caco-2 cell monolayers; after indomethacin was added, p < 0.001) was “significant increase” and the “change of PappAB and PappBA vs control” value (Caco-2 cell monolayers; before and after addition of verapamil) was “did not change significantly”. For the same compound, the “change of PappAB or PappBA vs control” value (Caco-2 cell monolayers; cotreatment with 200 μM benzbromarone) was “did not alter”, the BCRP substrate status (Caco-2 cell monolayers; from effect of apigenin (25 μM, BCRP inhibitor)) was “substrate of BCRP” and the MRP2 substrate status (Caco-2 cell monolayers; from effect of indomethacin (MRP2 inhibitor) on AP to BL flux) was “substrate of MRP2”. For the same compound, the “P-gp involvement in transport” value (Caco-2 cell monolayers; from effect of verapamil (P-gp inhibitor)) was “might not be involved”, the “change of morroniside transport vs control” value (Caco-2 cell monolayers; with 50 μM cimetidine) was “did not significantly increase or decrease” and the PappAB (Caco-2 cell monolayers; with 50 μM cimetidine (OATs)) was 1.82±0.5 ×10^-6cm/s. For the same compound, the PappBA (Caco-2 cell monolayers; with 50 μM cimetidine (OATs)) was 3.1±0.7 ×10^-6cm/s, the “change of morroniside transport vs control” value (Caco-2 cell monolayers; with 50 μM sodium vanadate) was “did not significantly increase or decrease” and the PappAB (Caco-2 cell monolayers; [4]) was 1.89±0.4 ×10^-6cm/s. For the same compound, the PappBA (Caco-2 cell monolayers; [4]) was 3.11±0.7 ×10^-6cm/s, the “Survival Rates (%, mean)” value (Caco-2 cells; 0.1 μM) was 105.12% and the “Survival Rates (%, mean)” value (Caco-2 cells; 1 μM) was 108.33%. For the same compound, the “Survival Rates (%, mean)” value (Caco-2 cells; 5 μM) was 101.62%, the “Survival Rates (%, mean)” value (Caco-2 cells; 10 μM) was 102.41% and the “Survival Rates (%, mean)” value (Caco-2 cells; 50 μM) was 95.21%. The “Survival Rates (%, mean)” value (Caco-2 cells; 100 μM) was 91.77%, the “Survival Rates (%, mean)” value (Caco-2 cells; 200 μM) was 90.72% and the “reduction of viability of Caco-2 cells” value (Caco-2 cells; highest concentration (200 μM)) was 8%. The “cytotoxicity toward Caco-2 cells (in words)” value (Caco-2 cells; morroniside 0.1 to 200 μM) was “nontoxic”.
